Assay results: publication PMC7676998 (Journal of medicinal chemistry, 2019)
Read-outs that look alike come from different tables or passages of the source.

Experiments:
adrenergic α1A receptor = target: T1, adrenergic α1A receptor (Homo sapiens, UniProt P35348); assay: Radioligand binding, adrenergic α1A
T1 sequence (P35348 1-466): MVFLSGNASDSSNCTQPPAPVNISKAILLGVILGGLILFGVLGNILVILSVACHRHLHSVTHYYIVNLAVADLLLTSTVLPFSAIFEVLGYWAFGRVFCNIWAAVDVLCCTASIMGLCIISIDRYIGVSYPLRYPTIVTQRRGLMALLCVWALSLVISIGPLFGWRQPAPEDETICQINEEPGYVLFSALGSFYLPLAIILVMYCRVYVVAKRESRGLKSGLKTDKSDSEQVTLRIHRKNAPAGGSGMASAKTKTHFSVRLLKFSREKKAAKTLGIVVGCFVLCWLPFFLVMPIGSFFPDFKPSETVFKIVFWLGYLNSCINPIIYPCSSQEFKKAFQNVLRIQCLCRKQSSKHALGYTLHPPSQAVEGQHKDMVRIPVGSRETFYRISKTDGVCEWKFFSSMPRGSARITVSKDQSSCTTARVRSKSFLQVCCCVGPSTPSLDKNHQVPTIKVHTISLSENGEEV

[1] = target: delta opioid receptor (DOP) (Homo sapiens, UniProt P41143); assay: Radioligand binding, delta opioid receptor
nociceptin NOP (ORL1) = nociceptin NOP (ORL1) (Homo sapiens, UniProt P41146); assay: Radioligand binding, nociceptin receptor
adrenergic α2B receptor = target: T2, adrenergic α2B receptor (Homo sapiens, UniProt P18089); type: binding
T2 sequence (P18089 1-450): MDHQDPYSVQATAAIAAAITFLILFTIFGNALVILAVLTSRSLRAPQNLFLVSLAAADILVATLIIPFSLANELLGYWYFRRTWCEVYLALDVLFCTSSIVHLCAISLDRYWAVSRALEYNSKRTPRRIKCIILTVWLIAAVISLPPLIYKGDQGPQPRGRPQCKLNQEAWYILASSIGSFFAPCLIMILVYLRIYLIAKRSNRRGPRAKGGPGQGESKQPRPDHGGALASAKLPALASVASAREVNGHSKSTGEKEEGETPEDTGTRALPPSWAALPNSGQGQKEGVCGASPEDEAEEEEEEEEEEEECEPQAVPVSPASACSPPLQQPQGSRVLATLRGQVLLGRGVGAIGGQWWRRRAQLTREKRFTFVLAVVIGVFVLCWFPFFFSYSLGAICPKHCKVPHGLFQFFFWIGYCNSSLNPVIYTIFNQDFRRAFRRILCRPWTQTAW

adrenergic α2A receptor = target: T3, adrenergic α2A receptor (Homo sapiens, UniProt P08913); assay: Radioligand binding, adrenergic α2A
T3 sequence (P08913 1-465): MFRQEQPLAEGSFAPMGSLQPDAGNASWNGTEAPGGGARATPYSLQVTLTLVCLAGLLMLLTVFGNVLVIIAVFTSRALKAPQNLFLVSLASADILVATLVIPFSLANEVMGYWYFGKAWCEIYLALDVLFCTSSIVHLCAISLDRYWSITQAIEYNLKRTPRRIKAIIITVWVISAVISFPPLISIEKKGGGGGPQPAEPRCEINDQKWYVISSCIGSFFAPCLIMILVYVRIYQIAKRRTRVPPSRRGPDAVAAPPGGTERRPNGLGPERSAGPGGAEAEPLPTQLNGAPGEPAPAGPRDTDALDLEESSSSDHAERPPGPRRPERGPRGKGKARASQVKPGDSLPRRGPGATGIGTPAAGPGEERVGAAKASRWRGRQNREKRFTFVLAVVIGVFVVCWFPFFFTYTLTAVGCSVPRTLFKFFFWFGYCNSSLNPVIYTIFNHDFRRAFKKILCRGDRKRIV

mu opioid receptor (MOP) = mu opioid receptor (MOP) (Homo sapiens, UniProt P35372); type: binding
adrenergic α1B receptor = target: T4, adrenergic α1B receptor (Homo sapiens, UniProt P35368); assay: Radioligand binding, adrenergic α1B
T4 sequence (P35368 1-520): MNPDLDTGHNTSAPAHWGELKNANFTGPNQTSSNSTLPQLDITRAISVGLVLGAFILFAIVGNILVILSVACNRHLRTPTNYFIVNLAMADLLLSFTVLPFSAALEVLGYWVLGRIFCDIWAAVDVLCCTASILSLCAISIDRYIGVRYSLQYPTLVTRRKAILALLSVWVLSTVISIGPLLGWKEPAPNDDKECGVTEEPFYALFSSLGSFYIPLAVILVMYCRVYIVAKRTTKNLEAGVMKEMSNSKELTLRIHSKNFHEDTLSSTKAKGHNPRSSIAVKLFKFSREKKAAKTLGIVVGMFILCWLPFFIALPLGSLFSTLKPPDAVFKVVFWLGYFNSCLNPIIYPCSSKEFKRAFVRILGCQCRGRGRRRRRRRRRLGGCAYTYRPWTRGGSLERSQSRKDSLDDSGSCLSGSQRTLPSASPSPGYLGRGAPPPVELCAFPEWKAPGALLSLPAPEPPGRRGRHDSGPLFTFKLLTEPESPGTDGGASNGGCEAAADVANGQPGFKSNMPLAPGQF

adrenergic α1D receptor = target: T5, adrenergic α1D receptor (Homo sapiens, UniProt P25100); assay: Radioligand binding, adrenergic α1D
T5 sequence (P25100 1-572): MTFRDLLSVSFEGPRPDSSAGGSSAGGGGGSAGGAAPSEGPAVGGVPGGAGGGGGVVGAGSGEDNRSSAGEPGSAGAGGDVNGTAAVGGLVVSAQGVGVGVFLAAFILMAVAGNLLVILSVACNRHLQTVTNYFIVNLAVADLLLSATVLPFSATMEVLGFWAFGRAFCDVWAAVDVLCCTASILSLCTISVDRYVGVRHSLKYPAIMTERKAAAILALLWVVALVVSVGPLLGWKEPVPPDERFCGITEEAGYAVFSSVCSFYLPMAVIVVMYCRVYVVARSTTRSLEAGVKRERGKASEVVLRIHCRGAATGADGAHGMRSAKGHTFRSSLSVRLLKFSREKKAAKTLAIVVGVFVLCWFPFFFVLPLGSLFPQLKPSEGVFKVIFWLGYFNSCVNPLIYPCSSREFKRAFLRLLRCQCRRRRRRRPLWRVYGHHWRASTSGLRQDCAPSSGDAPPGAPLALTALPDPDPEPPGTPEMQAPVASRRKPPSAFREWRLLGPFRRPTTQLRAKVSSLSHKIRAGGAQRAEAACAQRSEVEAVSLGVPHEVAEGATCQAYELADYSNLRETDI

α2C adrenergic receptor = target: T6, α2C adrenergic receptor (Homo sapiens, UniProt P18825); type: cell-based
T6 sequence (P18825 1-462): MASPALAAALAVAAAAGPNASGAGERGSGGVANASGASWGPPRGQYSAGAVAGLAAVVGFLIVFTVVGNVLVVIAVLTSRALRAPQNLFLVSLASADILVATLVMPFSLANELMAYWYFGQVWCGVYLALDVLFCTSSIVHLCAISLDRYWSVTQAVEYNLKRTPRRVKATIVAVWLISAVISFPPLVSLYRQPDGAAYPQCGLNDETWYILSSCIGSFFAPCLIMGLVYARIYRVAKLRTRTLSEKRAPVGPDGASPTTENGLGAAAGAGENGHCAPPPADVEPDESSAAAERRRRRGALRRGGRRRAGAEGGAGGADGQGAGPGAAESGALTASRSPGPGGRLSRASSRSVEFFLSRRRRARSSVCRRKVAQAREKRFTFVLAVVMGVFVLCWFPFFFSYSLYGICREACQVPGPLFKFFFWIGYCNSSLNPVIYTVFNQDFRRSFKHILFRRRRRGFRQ

α1B adrenergic receptor = target: T7, α1B adrenergic receptor (Homo sapiens, UniProt P35368); type: cell-based
T7 sequence (P35368 1-520): T4 sequence (P35368 1-520)

α1A adrenergic receptor = target: T8, α1A adrenergic receptor (Homo sapiens, UniProt P35348); type: cell-based
T8 sequence (P35348 1-466): T1 sequence (P35348 1-466)

MOP = MOP (Homo sapiens, UniProt P35372); type: cell-based
α1D adrenergic receptor = target: T9, α1D adrenergic receptor (Homo sapiens, UniProt P25100); type: cell-based
T9 sequence (P25100 1-572): T5 sequence (P25100 1-572)

KOP = KOP (Homo sapiens, UniProt P41145); assay: cell-based; type: cell-based
rats = settings: Sprague-Dawley, rat, in vivo
[2] = test system: human opioid receptors (MOP); settings: BRET assay; in words ref 14; cited from earlier work
Sprague-Dawley rats [3] = settings: rat, in vivo, iv, 10 mg/kg
Sprague-Dawley rats [4] = settings: rat, in vivo, iv
guinea pig ileum = settings: in words ref 15; cited from earlier work

Chain of delta opioid receptor (DOP) (P41143 whole entry): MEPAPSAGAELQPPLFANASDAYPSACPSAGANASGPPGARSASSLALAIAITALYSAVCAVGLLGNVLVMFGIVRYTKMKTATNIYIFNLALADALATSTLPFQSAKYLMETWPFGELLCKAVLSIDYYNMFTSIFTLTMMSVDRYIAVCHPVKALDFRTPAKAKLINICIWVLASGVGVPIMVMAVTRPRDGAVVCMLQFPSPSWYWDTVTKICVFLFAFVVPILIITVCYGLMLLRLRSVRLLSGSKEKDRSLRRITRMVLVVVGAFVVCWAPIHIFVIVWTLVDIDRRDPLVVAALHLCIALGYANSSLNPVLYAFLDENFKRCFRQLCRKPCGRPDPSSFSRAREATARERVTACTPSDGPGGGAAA
Chain of mu opioid receptor (MOP) (P35372 whole entry): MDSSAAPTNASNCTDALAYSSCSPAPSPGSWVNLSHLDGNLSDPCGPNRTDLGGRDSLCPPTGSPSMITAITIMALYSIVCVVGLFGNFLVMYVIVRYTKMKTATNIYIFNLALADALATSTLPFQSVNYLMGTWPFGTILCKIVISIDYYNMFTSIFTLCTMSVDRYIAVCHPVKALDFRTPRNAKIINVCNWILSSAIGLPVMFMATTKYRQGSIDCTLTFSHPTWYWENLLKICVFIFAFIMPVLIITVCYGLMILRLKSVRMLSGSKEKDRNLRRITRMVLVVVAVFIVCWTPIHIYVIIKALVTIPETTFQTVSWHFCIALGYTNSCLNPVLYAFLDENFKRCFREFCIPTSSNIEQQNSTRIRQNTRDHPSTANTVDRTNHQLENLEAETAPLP
Chain of nociceptin NOP (ORL1) (P41146 whole entry): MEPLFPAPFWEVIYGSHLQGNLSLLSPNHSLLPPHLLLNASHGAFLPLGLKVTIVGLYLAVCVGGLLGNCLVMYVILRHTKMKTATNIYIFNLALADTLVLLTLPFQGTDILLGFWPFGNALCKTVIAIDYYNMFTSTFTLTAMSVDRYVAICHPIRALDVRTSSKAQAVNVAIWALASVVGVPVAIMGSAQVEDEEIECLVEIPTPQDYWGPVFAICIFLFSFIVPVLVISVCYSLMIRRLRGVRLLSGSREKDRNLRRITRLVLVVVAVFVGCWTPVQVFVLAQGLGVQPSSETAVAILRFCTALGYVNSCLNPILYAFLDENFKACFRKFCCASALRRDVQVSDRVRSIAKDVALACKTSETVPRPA
Chain of MOP (P35372 whole entry): as the sequence (P35372 whole entry) above
Chain of KOP (P41145 whole entry): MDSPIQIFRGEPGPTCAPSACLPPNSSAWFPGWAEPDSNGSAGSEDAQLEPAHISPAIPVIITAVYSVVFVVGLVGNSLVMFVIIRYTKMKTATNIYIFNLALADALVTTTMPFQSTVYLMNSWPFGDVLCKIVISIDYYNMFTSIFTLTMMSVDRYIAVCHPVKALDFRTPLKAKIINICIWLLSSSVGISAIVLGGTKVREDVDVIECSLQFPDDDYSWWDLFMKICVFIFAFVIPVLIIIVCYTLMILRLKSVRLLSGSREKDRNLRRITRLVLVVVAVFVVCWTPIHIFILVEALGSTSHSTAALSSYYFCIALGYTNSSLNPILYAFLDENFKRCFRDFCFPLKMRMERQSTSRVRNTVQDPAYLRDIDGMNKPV

| SMILES | percent displacement of bound radioligand, adrenergic α1A (adrenergic α1A receptor; 100 nM test compound) [%] | percent displacement of bound radioligand, adrenergic α1A (adrenergic α1A receptor; 10,000 nM test compound) [%] | percent displacement of bound radioligand, opioid δ ([1]; 10,000 nM test compound) [%] | percent displacement of bound radioligand, nociceptin NOP (ORL1) (nociceptin NOP (ORL1); 100 nM test compound) [%] | percent displacement of bound radioligand, nociceptin NOP (ORL1) (nociceptin NOP (ORL1); 10,000 nM test compound) [%] | percent displacement of bound radioligand, adrenergic α2B (adrenergic α2B receptor; 100 nM test compound) [%] | percent displacement of bound radioligand, adrenergic α2B (adrenergic α2B receptor; 10,000 nM test compound) [%] | percent displacement of bound radioligand, adrenergic a2A (adrenergic α2A receptor; 100 nM test compound) [%] | percent displacement of bound radioligand, adrenergic a2A (adrenergic α2A receptor; 10,000 nM test compound) [%] | percent displacement of bound radioligand, opioid μ (mu opioid receptor (MOP); 100 nM test compound) [%] | percent displacement of bound radioligand, opioid μ (mu opioid receptor (MOP); 10,000 nM test compound) [%] | percent displacement of bound radioligand, adrenergic α1B (adrenergic α1B receptor; 100 nM test compound) [%] | percent displacement of bound radioligand, adrenergic α1B (adrenergic α1B receptor; 10,000 nM test compound) [%] | percent displacement of bound radioligand, adrenergic α1D (adrenergic α1D receptor; 100 nM test compound) [%] | percent displacement of bound radioligand, adrenergic α1D (adrenergic α1D receptor; 10,000 nM test compound) [%] | functional effect at MOP (MOP) | further results |
| --- | --- | --- | --- | --- | --- | --- | --- | --- | --- | --- | --- | --- | --- | --- | --- | --- | --- |
| CC[C@@H]1CN2CCc3c([nH]c4cccc(O)c34)[C@@H]2C[C@@H]1/C(=C\OC)C(=O)OC [9-hydroxycorynantheidine] | 16.4 | 62.3 | 25.3 | −2.9 | 28.9 | −5.7 | 14.6 | −10.2 | 20.0 | 29.3 | 95.4 | −4.4 | 29.0 | 12.4 | 66.3 | – | – |
| CC[C@@H]1CN2CCc3c([nH]c4ccccc34)[C@@H]2C[C@@H]1/C(=C\OC)C(=O)OC [corynantheidine] | 45.9 | 100.5 | 31.4 | −1.3 | 27.0 | 8.5 | 79.9 | 27.2 | 95.1 | 39.6 | 96.8 | 19.6 | 91.0 | 73.5 | 101.2 | – | percent displacement of bound radioligand, opioid δ ([1]; 100 nM test compound): 8.6%; fold higher affinity at the α−1D receptor than mitragynine (adrenergic α1D receptor; ratio of Ki versus mitragynine): 131 fold |
| CC[C@@H]1CN2CCc3c([nH]c4cccc(OC)c34)[C@@H]2C[C@@H]1/C(=C\OC)C(=O)OC [mitragynine] | – | – | – | – | – | – | – | – | – | – | – | −12.5 | – | – | – | partial agonists | antagonist effect at α−2C (α2C adrenergic receptor): competitive antagonist effects; antagonist effect at α−1B (α1B adrenergic receptor): competitive antagonist effects; agonist effect at α1A (α1A adrenergic receptor): partial agonist; antagonist effect at α−1A (α1A adrenergic receptor): competitive antagonist effects; agonist effect at α1D (α1D adrenergic receptor): partial agonist; antagonist effect at α−1D (α1D adrenergic receptor): competitive antagonist effects |
| CC[C@@H]1CN2CCc3c([nH]c4cccc(OC)c34)[C@H]2C[C@@H]1/C(=C\OC)C(=O)OC [speciociliatine] | – | – | – | −14.9 | – | – | – | – | – | – | – | – | – | – | – | partial agonists | functional effect at KOP (KOP): no agonist or antagonist effects; lethality (rats dead / rats tested) (rats): 5/21; agonist / antagonist activity at human opioid receptors [2]: no measurable agonist activity; antinociceptive effects in hot plate test (Sprague-Dawley rats [3]): had antinociceptive effects; change in body temperature (hypothermia) (Sprague-Dawley rats [4]): produced hypothermia; inhibition of electrically induced twitch contraction (guinea pig ileum): maximum inhibition of electrically induced twitch contraction of guinea pig ileum similar to morphine |
